Results on two compounds are retold here after patent US10919878B2, “MCT4 inhibitors and uses thereof” (CHARLES R. DREW UNIVERSITY OF MEDICINE AND SCIENCE, priority 2018, dated 2021).

For series [1], the target named is T1, MCT4 (Homo sapiens, UniProt O15427).
T1 construct: host or cells: MDA-MB-231
T1 sequence (O15427 1-465): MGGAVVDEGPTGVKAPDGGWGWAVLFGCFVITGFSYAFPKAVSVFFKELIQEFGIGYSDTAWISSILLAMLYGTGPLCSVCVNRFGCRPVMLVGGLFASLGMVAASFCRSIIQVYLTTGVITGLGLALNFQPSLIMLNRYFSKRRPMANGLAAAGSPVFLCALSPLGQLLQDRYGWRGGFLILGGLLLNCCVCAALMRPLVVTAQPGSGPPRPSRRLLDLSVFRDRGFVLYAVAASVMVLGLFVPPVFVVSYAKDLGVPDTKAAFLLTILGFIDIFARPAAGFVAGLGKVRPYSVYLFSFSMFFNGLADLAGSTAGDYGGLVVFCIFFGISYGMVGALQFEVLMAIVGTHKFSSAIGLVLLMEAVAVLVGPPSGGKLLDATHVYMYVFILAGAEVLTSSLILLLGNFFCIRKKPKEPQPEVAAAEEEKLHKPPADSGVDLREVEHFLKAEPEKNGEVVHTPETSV
Briefly: Lactate secretion assay (LACTATE-GLO Assay). In kind it is cell-based. The note with it: MDA-MB-231 cells, compounds 2.5 μM, 48 h. How it is done:
Briefly, MDA-MB-231 cells were incubated with the various compounds (2.5 μM) for 48 h followed by a lactate secretion assay. […] Small compound names are shown on the x-axis. Diclofenac was used as a positive control.
MDA-MB-231 cells were incubated with various candidate compounds (2.5 μM) for 48 hours followed by lactate secretion assay with a LACTATE-GLO™ Assay kit (Promega Corporation, Madison, Wis.) according to the manufacturer's protocol.

The test system of series [2] is MDA-MB-231 tumors. Briefly: MDA-MB-231 TNBC xenograft tumor model in nude mice. In kind it is in vivo. Particulars: 20 mg/kg intraperitoneally, up to 4 weeks; for tumor growth (size and weight): daily 5 days then 2 days rest. Here is the method:
Values represent mean±SD, n=6-8 mice/group.
Values represent mean±SD, n=8 mice/group.
The anti-tumor effects of the MCT4 inhibitors CB-1, CB-2 and/or CB-3 were evaluated in nude mice implanted with human triple negative breast cancer (TNBC) cells (MDA-MB-231). For TNBC xenograft tumor models, MDA-MB-231 (5×10^6) cancer cells were injected subcutaneously into the flanks of female athymic nude mice (nu/nu, 4 weeks old). Two weeks after the injection of cancer cells, xenograft tumors were found in the injection site. Tumor dimensions were measured, and volume was calculated by length (L), width (W), and height (H) using the formula (volume=π/6×L×W×H). After the tumors reached a volume of 50 mm^3, the mice were injected intraperitoneally with 20 mg/kg CB-1, CB-2, CB-3 or with the vehicle solution (DMSO; i.e., Control) for up to 4 weeks. The MCT4 inhibitors were injected daily for 5 days and then mice were rested for 2 days.

Series [3] relates to MDA-MB-231 cells. Briefly: Viability/cytotoxicity assay (growth inhibition). Format: cell-based. The note with it: Homo sapiens, read-out: IC50, inhibition of cell proliferation. Here is the method: Human cell lines MDA-MB-231 cells were obtained from ATCC (Rockville, Md.). These cells were authenticated by Laragen, Inc. (Culver City, Calif.), by short tandem repeat (STR) profiling, monitoring cell morphology and biological behavior, and tested to exclude mycoplasma contamination prior to use.
A viability/cytotoxicity assay was performed by culturing cells in 96-well plates. The following day the cells were treated with ½ serial dilutions of each compound or the solvent (DMSO) alone as a control. The amount of solvent was the same in all the conditions and each condition was tested in duplicate or triplicate. After 5 days incubation, the effect of the compounds on cell proliferation were determined by either MTT (3-(4,5-dimethylthiazol-2-yl)-2,5-diphenyltetrazolium bromide, Sigma-Aldrich, St. Louis, Mo.) or bioluminescence assay (Cell Titer Glo, Promega, Madison, Wis.). After incubation of the cells with MTT (1 mg/ml), the developed color was dissolved in DMSO and read by a plate reader. The bioluminescence assays were performed according to the manufacturer's recommendation. Growth inhibition rates were determined by comparing the read out for each compound dilution versus the control and from the growth inhibition curves from which the IC50 values were calculated. Each assay was performed at least twice.

Regarding `O=C(Nc1ccc(Nc2cc(-n3ccnc3)ncn2)cc1)Nc1cc(F)cc(F)c1` [CB-3, N-(3,5-difluorophenyl)-N′-(4-{[6-(1H-imidazol-1-yl)-4-pyrimidinyl]amino}phenyl)urea], the lactate secretion inhibition result in series [1] is “most effective”. Besides, in series [2], the “tumor growth (size and weight)” value is “strikingly reduced the size and weight”; the “body weight of the mice” value is on record as “without affecting body weight”; the “signs of systemic toxicity” value is on record as “no detectable signs of systemic toxicity”.

On to `O=C(Nc1cc(Cl)ccc1Oc1ccc2ccccc2c1Br)c1cc(Cl)cc(I)c1O` [CB-1, N-{2-[(1-bromo-2-naphthyl)oxy]-5-chlorophenyl}-5-chloro-2-hydroxy-3-iodobenzamide], for which the IC50 in series [3] was found to be 35.3 µM. In series [2], the “tumor growth (size and weight)” value was “significantly inhibited tumor growth”; the “body weight of the mice” value is given as “began to lose weight”.
